Where a chain is given by its changes, count along the chain named. Like-named read-outs stand apart in the source and are kept apart here.
How the values were obtained:
[1] = target: T1, AR, cytosol from LnCaP cells (Homo sapiens, UniProt P10275, T878A); assay: AR binding assay, 3H-R1881 (Biological Example 2)
T1 construct: AR in LNCaP cytosol was used; endogenous in cells; host or cells: LNCaP cells (cytosol)
T1 sequence (P10275 1-920 T878A): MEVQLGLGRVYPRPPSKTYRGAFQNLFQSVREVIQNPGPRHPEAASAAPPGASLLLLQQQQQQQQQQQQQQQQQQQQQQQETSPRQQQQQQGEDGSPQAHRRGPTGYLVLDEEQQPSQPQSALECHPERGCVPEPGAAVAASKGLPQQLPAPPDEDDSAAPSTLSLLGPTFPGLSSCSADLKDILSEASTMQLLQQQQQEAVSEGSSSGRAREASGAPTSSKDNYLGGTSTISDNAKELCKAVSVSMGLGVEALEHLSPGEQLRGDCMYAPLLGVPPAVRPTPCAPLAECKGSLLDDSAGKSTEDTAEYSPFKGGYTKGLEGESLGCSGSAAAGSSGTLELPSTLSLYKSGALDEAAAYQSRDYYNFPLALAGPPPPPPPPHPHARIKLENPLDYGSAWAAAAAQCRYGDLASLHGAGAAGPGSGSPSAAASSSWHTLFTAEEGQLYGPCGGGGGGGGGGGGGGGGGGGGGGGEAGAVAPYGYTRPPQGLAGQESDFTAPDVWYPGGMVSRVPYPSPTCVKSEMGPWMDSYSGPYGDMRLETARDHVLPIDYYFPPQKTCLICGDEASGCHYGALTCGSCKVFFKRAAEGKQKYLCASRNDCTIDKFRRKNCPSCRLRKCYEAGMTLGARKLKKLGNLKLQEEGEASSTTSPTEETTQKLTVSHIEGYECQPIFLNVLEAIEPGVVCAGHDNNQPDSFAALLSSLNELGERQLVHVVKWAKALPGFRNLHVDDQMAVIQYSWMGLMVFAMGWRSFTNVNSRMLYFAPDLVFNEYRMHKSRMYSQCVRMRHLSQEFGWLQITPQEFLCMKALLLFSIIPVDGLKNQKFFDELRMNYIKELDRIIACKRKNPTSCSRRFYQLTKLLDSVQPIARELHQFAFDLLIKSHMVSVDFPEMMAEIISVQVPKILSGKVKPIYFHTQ
Description: AR binding assay: To assess AR binding, test compound (top dose […], 4 fold serial dilution, 8 point dose response) and control (progesterone) were transferred to the assay plate. Cytosol from LnCaP cells was added to the plate, followed by addition of radiolabeled ^3H-R1881 at a final concentration of 1 nM. The plate was sealed, and the reaction was incubated at 300 rpm at 4° C. for 24 hrs. Radioligand absorption buffer (10 mM Tris-HCl, pH 7.4; 1.5 mM EDTA; 1 mM DTT; 0.25% charcoal; 0.0025% dextran) was then added to the plate, mixed, and incubated at 4° C. for 15 minutes. The plate was then centrifuged at 3000 rpm for 30 minutes at 4° C. The supernatant was transferred to the scint-tube and Tri-carb was used for scintillation counting. The data was analyzed using GraphPadPrism v5.0 and binding IC50 was determined as the concentration where 50% inhibition of radioligand binding was observed.

[2] = target: T2, full-length androgen receptor (Homo sapiens, UniProt P10275); assay: AR antagonism assay (HEK293, testosterone 1 nM, Steady-glo); type: cell-based
T2 construct: HEK293 cells stably expressing the full-length androgen receptor; expressed in transfected cells
T2 sequence (P10275 1-920): T1 sequence (P10275 1-920 T878A) with A878T
Description: AR antagonism assay: To evaluate AR antagonist activity, test compound was added to the assay plate (top dose 10 μM, 3 fold serial dilution, 10 point dose response). HEK293 cells stably expressing the full-length androgen receptor were seeded at a density of 20000 cells/well in the assay plate. The assay plate was then incubated at room temperature for 10 minutes and at 37° C., 5% CO2 for 20 minutes. Testosterone was added to the assay plate at 1 nM final concentration and the assay plate was incubated at 37° C., 5% CO2 for 20 h. After the incubation period, Steady-glo was added to the assay plate and mixed at room temperature for 20 minutes on an orbital shaker, before reading out on the EnVision plate reader.

[3] = Table 8, 3H-R1881 1 nM, read-out: AR binding
[4] = Table 8, testosterone 1 nM, read-out: AR antagonism
[5] = Table 7, testosterone 1 nM, read-out: AR antagonism

| IC50 [1, 3] [µM] | IC50 [2, 4] [µM] | Structure (SMILES) | IC50 [1] [µM] | other results |
| --- | --- | --- | --- | --- |
| – | – | C[C@@]12CCC(=O)C[C@H]1CC[C@H]1[C@H]2CC[C@]2(C)[C@@H]1CC[C@H]2OCCCCCCNC(=O)c1cc(Cc2n[nH]c(=O)c3ccccc23)ccc1F (stereo in doubt) [Compound 1426, N-(6-((5R,8S,9R,10R,13R,14R,17R)-10,13-dimethyl-3-oxohexadecahydro-1H-cyclopenta[a]phenanthren-17-yloxy)hexyl)-2-fluoro-5-((4-oxo-3,4-dihydrophthalazin-1-yl)methyl)benzamide] | 0.1 to 1 | IC50 [2]: 0.1 to 1 µM |
| 0.01 to 0.1 | 0.1 to 1 | CC#C[C@]1(O)CC[C@H]2[C@@H]3CCC4=CC(=O)CCC4=C3[C@@H](c3ccc(N(C)CCCCCC(=O)N4CCN(C(=O)c5cc(Cc6n[nH]c(=O)c7ccccc67)ccc5F)CC4)cc3)C[C@@]21C [Compound 135, 4-(4-fluoro-3-(4-(6-((4-((8S,11R,13S,14S,17S)-17-hydroxy-13-methyl-3-oxo-17-(prop-1-ynyl)-2,3,6,7,8,11,12,13,14,15,16,17-dodecahydro-1H-cyclopenta[a]phenanthren-11-yl)phenyl)(methyl)amino)hexanoyl)piperazine-1-carbonyl)benzyl)phthalazin-1(2H)-one] | – | – |
| – | – | C[C@]12C[C@H](CCCCCC(=O)N3CCN(C(=O)c4cc(Cc5n[nH]c(=O)c6ccccc56)ccc4F)CC3)C3=C4CCC(=O)C=C4CC[C@H]3[C@@H]1CCC2O (stereo partly drawn) [Compound 138, 4-(4-fluoro-3-(4-(6-((8S,11S,13S,14S)-17-hydroxy-13-methyl-3-oxo-2,3,6,7,8,11,12,13,14,15,16,17-dodecahydro-1H-cyclopenta[a]phenanthren-11-yl)hexanoyl)piperazine-1-carbonyl)benzyl)phthalazin-1(2H)-one] | 0.01 to 0.1 | IC50 [2]: 0.1 to 1 µM |
| – | – | Cn1ncnc1C1c2n[nH]c(=O)c3cc(F)cc(c23)N[C@@H]1c1ccc(NC(=O)CCCCCO[C@@H]2CC[C@H]3[C@@H]4CC[C@H]5CCCC[C@]5(C)[C@H]4CC[C@]23C)cc1 (stereo partly drawn) [Compound 1128, 6-((5R,8R,9S,10S,13S,14S,17R)-10,13-dimethylhexadecahydro-1H-cyclopenta[a]phenanthren-17-yloxy)-N-(4-((8S)-5-fluoro-9-(1-methyl-1H-1,2,4-triazol-5-yl)-3-oxo-3,7,8,9-tetrahydro-2H-pyrido[4,3,2-de]phthalazin-8-yl)phenyl)hexanamide] | – | IC50 ([1]; Table 7, 3H-R1881 1 nM, read-out: AR binding): 1 to 10 µM; IC50 [2, 5]: 1 to 10 µM |
| < 0.01 | 0.1 to 1 | CC(=O)O[C@]1(C(C)=O)CC[C@H]2[C@@H]3CCC4=CC(=O)CCC4=C3[C@@H](c3ccc(N(C)CCCCCC(=O)N4CCN(C(=O)c5cc(Cc6n[nH]c(=O)c7ccccc67)ccc5F)CC4)cc3)C[C@@]21C [Compound 1378, (8S,11R,13S,14S,17R)-17-acetyl-11-(4-((6-(4-(2-fluoro-5-((4-oxo-3,4-dihydrophthalazin-1-yl)methyl)benzoyl)piperazin-1-yl)-6-oxohexyl)(methyl)amino)phenyl)-13-methyl-3-oxo-2,3,6,7,8,11,12,13,14,15,16,17-dodecahydro-1H-cyclopenta[a]phenanthren-17-yl acetate] | – | – |
| < 0.01 | > 10 | CC(=O)O[C@]1(C(C)=O)CC[C@H]2[C@@H]3CCC4=CC(=O)CCC4=C3[C@@H](c3ccc(N(C)CCCCCC(=O)NCCOCCOCC(=O)N4CCN(C(=O)c5cc(Cc6n[nH]c(=O)c7ccccc67)ccc5F)CC4)cc3)C[C@@]21C [Compound 1384, (8S,11R,13S,14S,17R)-17-acetyl-11-(4-((6-(2-(2-(2-(4-(2-fluoro-5-((4-oxo-3,4-dihydrophthalazin-1-yl)methyl)benzoyl)piperazin-1-yl)-2-oxoethoxy)ethoxy)ethylamino)-6-oxohexyl)(methyl)amino)phenyl)-13-methyl-3-oxo-2,3,6,7,8,11,12,13,14,15,16,17-dodecahydro-1H-cyclopenta[a]phenanthren-17-yl acetate] | – | – |
| – | – | C[C@]12Cc3cn[nH]c3C[C@@H]1CC[C@@H]1[C@@H]2CC[C@]2(C)[C@@H](OCCCCCC(=O)N3CCN(C(=O)c4cc(Cc5n[nH]c(=O)c6ccccc56)ccc4F)CC3)CC[C@@H]12 [Compound 1394, 4-(3-(4-(6-(((1S,3aS,3bR,5aS,10aS,10bS,12aS)-10a,12a-dimethyl-1,2,3,3a,3b,4,5,5a,6,7,10,10a,10b,11,12,12a-hexadecahydrocyclopenta[5,6]naphtho[1,2-f]indazol-1-yl)oxy)hexanoyl)piperazine-1-carbonyl)-4-fluorobenzyl)phthalazin-1(2H)-one] | 0.1 to 1 | IC50 [2, 5]: 1 to 10 µM |
| 0.01 to 0.1 | > 10 | CC#C[C@]1(O)CC[C@H]2[C@@H]3CCC4=CC(=O)CCC4=C3[C@@H](c3ccc(N(C)CCCCCC(=O)NCCOCCOCC(=O)N4CCN(C(=O)c5cc(Cc6n[nH]c(=O)c7ccccc67)ccc5F)CC4)cc3)C[C@@]21C [Compound 1429, N-(2-(2-(2-(4-(2-fluoro-5-((4-oxo-3,4-dihydrophthalazin-1-yl)methyl)benzoyl)piperazin-1-yl)-2-oxoethoxy)ethoxy)ethyl)-6-((4-((8S,11R,13S,14S,17S)-17-hydroxy-13-methyl-3-oxo-17-(prop-1-ynyl)-2,3,6,7,8,11,12,13,14,15,16,17-dodecahydro-1H-cyclopenta[a]phenanthren-11-yl)phenyl)(methyl)amino)hexanamide] | – | – |

| Structure (SMILES) | IC50 [1, 3] [µM] | IC50 [2, 4] [µM] | IC50 [1] [µM] | other results |
| --- | --- | --- | --- | --- |
| C[C@]12CC[C@H]3[C@@H](CCC4=CC(=O)CC[C@@]43C)[C@@H]1CC[C@@H]2C(=O)COCCCCCC(=O)N1CCN(C(=O)c2cc(Cc3n[nH]c(=O)c4ccccc34)ccc2F)CC1 [Compound 1386, 4-(3-(4-(6-(2-((8S,9S,10R,13S,14S,17S)-10,13-dimethyl-3-oxo-2,3,6,7,8,9,10,11,12,13,14,15,16,17-tetradecahydro-1H-cyclopenta[a]phenanthren-17-yl)-2-oxoethoxy)hexanoyl)piperazine-1-carbonyl)-4-fluorobenzyl)phthalazin-1(2H)-one] | 0.01 to 0.1 | 0.1 to 1 | – | – |

Source: US11952349B2, “Anti-cancer nuclear hormone receptor-targeting compounds” (Nuvation Bio Inc., priority 2019, dated 2024)
